Assay in all cases: inhibition of tumour cell growth, NCI panel, 48 h
The subject of assay [1] is NCI-H23 lung.
Assay [2] relates to HS 578T breast.
The subject of assay [3] is HOP-62 NSCLC.
Assay [4] relates to UO-31 renal.
The test system of assay [5] is HCT-15 colon.
Assay [6] has as its system SW-620 colon.
Assay [7] relates to A498 renal.
Assay [8] concerns NCI-H460 lung.
The test system of assay [9] is HT29 colon.
For assay [10], the system named is RXF 393 renal.

Values joined by “and” are separate entries in the source; they are usually repeats but may differ in a detail not shown here. Identical values can stand only once.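 These data come from cells grown in 96-well plates and exposed to compound for 48 hours at five concentrations. GI50 = concentration required for 50% inhibition of growth. TGI denotes the concentration required for complete inhibition of growth.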 Where a SMILES comes first, the peptide text is derived from it. The star is where a group is joined. Boc = CC(C)(C)OC(=O)*; OBn = c1ccc(CO*)cc1

For `O=C1CC(C(CC(=O)c2ccccc2)c2ccccc2)C(=O)c2ccccc2N1` (stereo not drawn), the TGI is greater than 100 µM in [1]; greater than 100 µM in assay [2]; greater than 100 µM in [3]; 40.4 µM in assay [4]; 94.9 µM in [5]; greater than 100 µM in assay [6]. The TGI in assay [7], in [8] and in assay [9] was greater than 100 µM throughout.
On to `Cc1ccc(S(=O)(=O)NC(=O)NC(CCCCN=C(N)N)C(=O)O)cc1` (stereo not drawn), for which the TGI in [1], in [2], in [3], in [4], in assay [5] and in assay [6] was greater than 100 µM each time. Also, the TGI in [8] and in assay [10] was greater than 100 µM in each case.
In the case of `Cn1c([C@H](C#N)C(=O)c2cc(O)ccc2[N+](=O)[O-])nc2ccccc21`, the TGI in [1], in assay [2], in [3], in assay [4], in assay [5] and in assay [7] was greater than 100 µM throughout. Further, the TGI in assay [8] and in [9] was greater than 100 µM in each case.
In the case of `Cc1nnc2n(c1=O)CCN2C`, the TGI in assay [1], in assay [2], in assay [3], in assay [4], in assay [5] and in assay [6] was greater than 100 µM each time. For the same compound, the TGI in assay [8], in assay [10] and in assay [9] was greater than 100 µM each time.
In the case of `C=C1[C@@](C)([C@@H]2CCCS2)[C@H]2C(C)=C[C@]1(C)n1c(=O)n(-c3ccccc3)c(=O)n12`, the TGI in [1], in assay [2], in assay [3], in assay [4], in assay [5] and in [6] was greater than 100 µM in each case. Besides, the TGI in assay [7], in assay [8] and in [9] was greater than 100 µM each time.
For `CC(=O)OC12c3ccccc3C(c3ccccc31)C1C(=O)N(c3ccccn3)C(=O)C12` (stereo not drawn), the TGI in assay [1] was greater than 100 µM; in assay [2], greater than 100 µM; in assay [3], greater than 100 µM; in assay [4], 57.9 µM; in [5], greater than 100 µM; in assay [6], greater than 100 µM. Further, the TGI in assay [10] and in assay [9] was greater than 100 µM each time.
For `C[N+](C)(C)C=Nc1cccc2c1CCCC2`, the TGI in assay [1], in [2], in [3], in assay [4], in [5] and in [7] was greater than 100 µM in each case. Further, the TGI in [10] and in assay [9] was greater than 100 µM each time.
For the compound `CCOC(=O)NNC(=O)NCc1ccccc1CNC(=O)NNC(=O)OCC`, the TGI in assay [1], in assay [2], in assay [4], in assay [5], in assay [6] and in assay [7] was greater than 100 µM each time. Moreover, the TGI in assay [8], in assay [10] and in assay [9] was greater than 100 µM throughout.
Regarding `CCOC(=O)C(NC(=O)CC)(Nc1ccc(S(=O)(=O)Nc2onc(C)c2C)cc1)C(F)(F)F` (stereo not drawn), the TGI in assay [1], in assay [2], in assay [3], in assay [4], in assay [5] and in [6] was greater than 100 µM in each case. In addition, the TGI in assay [8], in assay [10] and in assay [9] was greater than 100 µM throughout.
In the case of `CC(=O)OC1C2CCC3C(C)(O)C4CC(O)C(C)(C)C4(O)C(O)CC13CC2(C)O` (stereo not drawn), the TGI in assay [1], in [2], in assay [3], in [4], in assay [5] and in [7] was greater than 100 µM each time. In [9], this compound showed a TGI greater than 100 µM.
Turning to `CS(=O)(=O)c1nc(-c2cc3c(c(S(C)(=O)=O)n2)CCC3)cc2c1CCCC2`, the TGI in assay [1] is greater than 100 µM; in assay [2] it was 14.1 µM; in assay [3], 78.6 µM; in assay [4] it was greater than 100 µM; in assay [5] it was greater than 100 µM; in assay [6], greater than 100 µM. The figures for the TGI in assay [10] and in assay [9] were 40.5 µM and greater than 100 µM, respectively.
Regarding `N=C(N)SCCC(=O)CCSC(=N)N`, the TGI in assay [1], in [2], in assay [4], in assay [5], in assay [6] and in assay [7] was greater than 100 µM in each case. The TGI in assay [8], in assay [10] and in assay [9] was greater than 100 µM each time.
As to `O=C(O)CC[P+](c1ccccc1)(c1ccccc1)c1ccccc1`, the TGI in [1], in assay [2], in [3], in assay [4], in [5] and in assay [6] was greater than 100 µM each time. Further, the TGI in assay [7], in assay [10] and in assay [9] was greater than 100 µM each time.
With `CC1(C)C(CCO)CC1n1ccc(=O)[nH]c1=O` (stereo not drawn), the TGI in assay [2], in [3], in [4], in [5], in [6] and in assay [7] was greater than 100 µM in each case. In assay [10], this compound came in with a TGI greater than 100 µM.
In the case of `COCC1OC(S(=O)(=O)c2ccccc2)C(O)C(OC)C1OC` (stereo not drawn), the TGI in assay [1], in [2], in [3], in assay [4], in [5] and in assay [6] was greater than 100 µM throughout. Further, the TGI in [8], in assay [10] and in [9] was greater than 100 µM throughout.
For the compound `CS[C@]12[C@@H]3C(=O)N(C)C(=O)[C@@H]3[C@](C)(C(=O)N1C)C(=O)N2c1ccccc1`, the TGI in [1], in [2], in assay [3], in [4], in assay [5] and in assay [6] was greater than 100 µM throughout. Further, the TGI in assay [7], in [10] and in [9] was greater than 100 µM in each case.
For `COC(=O)C1=C(O)C(C(=O)OC)[C@]2(O)[C@@H](C(=O)OC)[C@H]1C[C@@H](c1ccccc1)[C@@H]2C(=O)OC` (stereo partly drawn), the TGI is 32.1 µM in assay [1]; 76.8 µM in assay [2]; 41.7 µM in assay [3]; 26.6 µM in [4]; 26.9 µM in assay [5]; 35.2 µM in [7]. Further, the TGI in [8] was 37.8 µM; in assay [10], 19.9 µM; in [9], 36.7 µM.
Consider `COc1ccc(/C=C/C(=O)c2ccc(-n3cc(CN4CCN(c5cc6c(cc5F)c(=O)c(C(=O)O)cn6C5CC5)CC4)nn3)cc2)cc1OC`, for which the GI50 in [1] is 2.97 µM; in [2], 3.91 µM; in assay [3] it was 2.49 µM; in assay [4], 1.73 µM; in [5] it was 2.25 µM; in assay [6], 1.37 µM. Moreover, the GI50 in assay [7] was 4.18 µM; in [8], 2.4 µM; in assay [9], 1.24 µM. Moreover, the TGI was 22.3 µM in [1]; greater than 100 µM in assay [2]; greater than 100 µM in assay [3]; 9.01 µM in assay [4]; greater than 100 µM in [5]; 6.98 µM in assay [6]. The values for the TGI in assay [7], in [8] and in [9] were 14.4 µM, 6.66 µM and greater than 100 µM, respectively.
With `O=C1CC(C(OCc2ccccc2)C(OCc2ccccc2)C(COCc2ccccc2)OCc2ccccc2)CC(=O)N1` (stereo not drawn), the TGI in [1], in [2], in [4], in [5], in assay [6] and in assay [7] was greater than 100 µM in each case. Moreover, the TGI in [8] was greater than 100 µM; in [10] it was greater than 100 µM; in assay [9], greater than 75 µM. The GI50 in assay [4] is > 100 µM and 45.7 µM.
As to `CCOC(=O)c1c(C)nc2c(c1-c1cn(-c3ccccc3)nc1-c1ccccc1)C(=O)c1ccccc1-2`, the TGI in assay [1], in assay [2], in assay [3], in assay [5], in assay [6] and in assay [7] was greater than 100 µM each time. For the same compound, the TGI in assay [10] and in [9] was greater than 100 µM each time.
For the compound `C=C[C@@]1(O)CCCC[C@@H]1CC(Sc1ccccc1)Sc1ccccc1`, the TGI in assay [1] was determined as 32.7 µM; in assay [2], 33.6 µM; in assay [3], 29.5 µM; in assay [4], 32.2 µM; in assay [5], 34.6 µM; in [7] it was 85 µM. The figures for the TGI in [8], in [10] and in assay [9] were 26.2 µM, 30.5 µM and 36.9 µM, respectively.
Regarding `CC(C)CC(NC(=O)OC(C)(C)C)C(=O)NC(CC(=O)OCc1ccccc1)C(=O)OCc1ccccc1` (stereo not drawn) (Boc-Leu-Asp(OBn)-OBn; configuration not given here), the TGI in assay [1] is greater than 100 µM; in assay [2], greater than 100 µM; in [3], greater than 100 µM; in assay [4], 75 µM; in [6] it was greater than 100 µM; in assay [7] it was greater than 100 µM. In addition, the TGI in assay [8] is greater than 100 µM; in assay [10], 90.5 µM; in assay [9], greater than 100 µM.
With `Cc1ccnc2nc(N)ccc12`, the TGI in [1], in assay [2], in assay [4], in assay [5], in assay [6] and in assay [7] was greater than 100 µM throughout. Besides, the TGI in assay [8], in [10] and in assay [9] was greater than 100 µM each time.
Regarding `N#C/C(=C\c1ccc([N+](=O)[O-])s1)c1nc2cc(Cl)ccc2s1`, the GI50 is 0.773 µM in assay [1]; 2.45 µM in assay [2]; 1.83 µM in assay [3]; 0.602 µM in assay [4]; 0.246 µM in assay [5]; 0.354 µM in [6]. Moreover, the GI50 was 3.56 µM in [7] and 3.29 µM in [9]. Also, the TGI turned out to be 3.91 µM in assay [1]; 8.45 µM in [2]; 5.44 µM in assay [3]; 2.8 µM in assay [4]; 0.622 µM in [5]; 2.09 µM in [6]. Further, the TGI in [7] and in [9] was greater than 100 µM throughout.
On to `CC12CCCCC1=[N+]([O-])C(C)(C)N2O` (stereo not drawn), for which the TGI in assay [1], in assay [2], in [3], in assay [4], in assay [5] and in [6] was greater than 100 µM in each case. Moreover, the TGI in assay [8], in assay [10] and in assay [9] was greater than 100 µM throughout.
`COc1ccccc1N=Nc1c(O)c(S(=O)(=O)O)cc2cc(S(=O)(=O)O)ccc12`: the TGI in assay [1], in [2], in [3], in assay [4], in assay [5] and in assay [6] was greater than 100 µM each time. Further, the TGI in [7], in [10] and in [9] was greater than 100 µM in each case.
As for `CC(=O)NC1=C(NCCCl)C(=O)c2ccccc2C1=O`, the TGI in assay [1] was 80.1 µM; in assay [2] it was greater than 100 µM; in assay [3] it was greater than 100 µM; in [5] it was greater than 100 µM; in assay [6], greater than 100 µM; in assay [8] it was greater than 100 µM. Moreover, the results for the TGI in [10] and in [9] were 69.8 µM and 75.1 µM, respectively.
`Oc1ccccc1C1C=C(c2ccccc2)NC(N2CCCCC2)=C1c1nc2ccccc2[nH]1` (stereo not drawn): the TGI in assay [1] came to 30.3 µM; in assay [2] it was 31 µM; in [3], 27.4 µM; in [4], 23.7 µM; in assay [5], 35.9 µM; in [6], 30.5 µM. Also, the values for the TGI in assay [8], in assay [10] and in [9] were 28 µM, 24.7 µM and 29.3 µM, respectively.
